Source: patent publication US8563730B2, “Pyrazole and fused pyrazole glucokinase activators” (Takeda San Diego, Inc., priority 2008, dated 2013)

Target: T1, GK (glucokinase, residues 12-465) (Homo sapiens, UniProt P35557)
T1 construct: I.D. No. 1 corresponds to residues 12-465 of glucokinase; made in house; host or cells: DH10b-T1r E. coli
T1 sequence (P35557 with tags, fused parts or gaps isoform P35557-2): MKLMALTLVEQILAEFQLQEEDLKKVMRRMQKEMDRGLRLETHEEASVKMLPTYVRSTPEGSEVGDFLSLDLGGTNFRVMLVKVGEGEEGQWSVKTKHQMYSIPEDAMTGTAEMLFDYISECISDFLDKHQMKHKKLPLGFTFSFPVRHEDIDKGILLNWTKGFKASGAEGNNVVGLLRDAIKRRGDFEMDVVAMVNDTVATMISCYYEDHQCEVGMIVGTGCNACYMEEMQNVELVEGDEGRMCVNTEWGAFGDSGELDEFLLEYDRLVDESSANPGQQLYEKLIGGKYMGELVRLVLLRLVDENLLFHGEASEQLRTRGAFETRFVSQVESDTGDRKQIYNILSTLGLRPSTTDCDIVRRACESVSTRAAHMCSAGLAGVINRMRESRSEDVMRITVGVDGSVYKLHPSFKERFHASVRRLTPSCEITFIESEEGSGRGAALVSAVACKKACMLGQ
Assay: enzymatic glucokinase activity assay (ATP consumption, KinaseGlo luminescence)
Assay type: biochemical
Conditions: 5 μM ATP, 5 mM Glucose, reported as bins
Outline: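 E. coli-expressed recombinant GK purified by two anion-exchange steps. Reaction in 25 mM Hepes pH 7.2, 10 mM MgCl2, 1 mM DTT, 5 μM ATP, 5 mM glucose, 2% DMSO, 60 min at room temperature. ATP consumption quantified by KinaseGlo luminescence; pKact and % ACTmax derived by non-linear curve fitting.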

O=C(Nc1cnccn1)[C@H](CC1CCOCC1)n1ncc2c(S(=O)(=O)C3CC3)cncc21 [Compound 171, (S)-2-(4-(cyclopropylsulfonyl)-1H-pyrazolo[3,4-c]pyridin-1-yl)-N-(pyrazin-2-yl)-3-(tetrahydro-2H-pyran-4-yl)propanamide]
EC50 (Kact = concentration that displays 50% of the maximal increase in GK activity, 60 min, room temperature, read-out: pKact): 1580 to 3160 nM
Emax (read-out: % ACTmax, calculated maximal gain in GK enzyme activity at a saturating concentration of the compound): 106 to 110%
